One series deals with Mcl-1 (Homo sapiens, UniProt Q07820). The experiment in a line: Competitive fluorescence polarization assay, Mcl-1 / FAM-Bim. The class given is binding. Conditions: Mcl-1 100 nM, FAM-Bim 5 nM. How it is done: (§1) Competitive fluorescence polarization assays were carried out in black-walled plates in assay buffer (20 mM Na2HPO4 ·12H2O, 20 mM NaH2PO4·12H2O, 1 mM EDTA, 50 mM NaCl, 0.05% PF-68). The use of protein/peptide probe pairs was as follows: Bcl-xL (5 nM) and FAM-Bad (5 nM), Bcl-2 (100 nM) and FAM-Bax (5 nM), Mcl-1 (100 nM) and FAM-Bim (5 nM). Assay buffer, proteins, drugs, and peptides were added to the assay plates sequentially. The assay plates were slightly shaken for 3 min and incubated for 30 min at room temperature. The fluorescence polarization was measured on a Synergy 2 reader (BioTek).

Series [1] addresses T1, Bcl-xL (Homo sapiens, UniProt Q07817). The experiment in a line: Competitive fluorescence polarization assay, Bcl-xL / FAM-Bad. The series is classed as binding. As to conditions: Bcl-xL 5 nM, FAM-Bad 5 nM. How it is done: as §1
Series [2] concerns the target T1, Bcl-xL. The experiment in a line: Co-immunoprecipitation of Bcl-xL ubiquitination in 293T cells. The class given is cell-based. As to conditions: 293T cells with GST-Bcl-xL and HA-Ub, 1 µM, 4 h. How it is done:
Cells were lysed in immunoprecipitation lysis buffer (#87787, Thermo Fisher Scientific) supplemented with protease and phosphatase inhibitor cocktail. Cell lysates were incubated with the indicated antibodies at 4 °C overnight, followed by incubation with Protein A/G Plus-Agarose beads (Santa Cruz Biotechnology) at 4 °C for 4 h. Immunoprecipitates were collected by centrifugation and washed three times with washing buffer. The complex was separated from the beads and then boiled for 10 min. The immunoprecipitates and inputs were analyzed by SDS-PAGE and immunoblot using the antibodies as indicated. […]
hydrochloride; DMAP = 4-dimethylaminopyridine; TFA = trifluoroacetic acid; DMF = N,N-dimethylformamide. (D) A representative western blot analysis of SALL4 in NIH-3T3 cells after being treated with SIAIS361034 as indicated for 24 h. (E) A representative western blot analysis of hemagglutinin (HA), Bcl-xL, and GAPDH following GST-Bcl-xL immunoprecipitation of protein extracts from 293T cells. Cells were cotransfected as indicated with GST-Bcl-xL and HA-tagged ubiquitin (HA-Ub) and then were treated with or without SIAIS361034 (1 µM) and MG132 (10 µM) as […]

The test system of series [3] is SmoA1 (Smo W539L) medulloblastoma tumor. The experiment in a line: SmoA1 medulloblastoma allograft in nude mice. The series is classed as in vivo, mouse. From the text: For in vivo SmoA1 MB allograft studies, SmoA1 spontaneous MB tumors were obtained from ND2:SmoA1 transgenic mice as previously described. Male nude mice (4 to 5 weeks of age) were purchased from Shanghai Lingchang Biotechnology Co. (Shanghai, China). Spontaneous tumors were harvested and subcutaneously allografted into nude mice. When the tumor volumes reached approximately 2000 mm^3, they were harvested and further subcutaneously allografted into nude mice. When the tumor volumes reached about 150 to 200 mm^3, the tumor-bearing mice were randomly assigned into vehicle and treatment groups. Mice were weighed every 3 days. Tumor size was measured once every 3 days using microcaliper. Tumor volume (V) was determined using the following formula: V = (L×W^2) ×0.5, where L is length, and W is width in mm. Tumor tissues were harvested 6 h after the last dosage to examining Gli1 mRNA expression and protein levels. SIAIS361034 for i.p. administration was formulated in 0.5% sodium carboxymethyl cellulose (CMC-Na). All in vivo studies above were approved by and conformed to the policies and regulations of the Animal Care and Use Committee of Fudan University, China.

A further series concerns Wnt signaling pathway. The experiment in a line: TCF/LEF luciferase reporter assay in LS174T cells. The class given is cell-based. As to conditions: PGE2 1 μM, 24 h, SIAIS361034 10 μM, H-89 20 μM. How it is done: Cells seeded in 96-well plates were treated with various treatments as indicated. The luciferase activity in the cell lysates was measured using Dual-Luciferase Reporter Assay System (Promega, Madison, WI, USA) according to the manufacturer's instructions in a luminometer (Molecular Devices, Sunnyvale, CA). The firefly luciferase values were normalized to Renilla values. […]
μM) for 6 h. Data represent mean ± SD (n = 3). (C) TCF/LEF luciferase analysis of the effect of SIAIS361034 on Wnt signaling pathway in LS174T cells. The LS174T cellswere transfected with TCF/LEF luciferase reporter and Renilla-TK plasmids and […]
Data represent mean ± SD (n = 3).
(1 picture or pasted object on this page, not shown here)
(In general: In a reporter assay the amount or activity of a reporter protein is the signal.)

In a further series the test system is Sufu/Gli1 interaction. Description: Co-immunoprecipitation of Sufu with Gli1 in NIH-3T3 cells. The series is classed as cell-based. As to conditions: 1 µM. How it is done:
Cells were lysed in immunoprecipitation lysis buffer (#87787, Thermo Fisher Scientific) supplemented with protease and phosphatase inhibitor cocktail. Cell lysates were incubated with the indicated antibodies at 4 °C overnight, followed by incubation with Protein A/G Plus-Agarose beads (Santa Cruz Biotechnology) at 4 °C for 4 h. Immunoprecipitates were collected by centrifugation and washed three times with washing buffer. The complex was separated from the beads and then boiled for 10 min. The immunoprecipitates and inputs were analyzed by SDS-PAGE and immunoblot using the antibodies as indicated.

Series [4] relates to bone growth of young mice. Description: Bone growth of young mice (body weight, Micro-CT, H&E, IHC). The series is classed as in vivo, mouse. As to conditions: 6-week-old mice treated P12 to P16.
In series [5] the test system is IKZF1, IKZF3, SALL4, GSPT1. Description: Western blot of CRBN neo-substrates in NIH-3T3 cells. Conditions: 24 h. The series is classed as cell-based. How it is done: Cells were lysed in cell lysis buffer (50 mM Tris pH 8.0, 150 mM NaCl, 10% glycerol, 1 mM EDTA, 50 mM NaF, and 0.1% NP-40) supplemented with protease and phosphatase inhibitors. Total protein extracts of tissues were generated in radioimmunoprecipitation (RIPA) assay lysis buffer containing complete protease and phosphatase inhibitor cocktail. Protein content was quantified using the Pierce BCA Protein Assay Kit (#23225, Thermo Fisher Scientific). The proteins were separated by SDS-PAGE, electrophoretically transferred to polyvinylidene difluoride (PVDF) blotting membranes (#LC2002, Thermo Fisher Scientific), and subjected to routine immunoblot analysis with primary antibodies as follows: anti-Bcl-2 (#15071), anti-Mcl-1 (#94296), anti-VHL (#68547), anti-CRBN (#71810), and anti-Sufu (#2522) were obtained from Cell Signaling Technology (Danvers, Massachusetts, USA); anti-Bcl-xL (#ab32370), anti-Gli1 (#ab134906), and anti-Smoothened (#ab236465) were obtained from Abcam (Cambridge, CB2 0AX, UK); anti-GAPDH (#60004-1-Ig) and anti-β-tubulin (#10094-1-AP) were purchased from Proteintech Group, Inc. (Rosemont, IL 60018, USA). The results were quantified by densitometry using ImageJ software (NIH). […]
hydrochloride; DMAP = 4-dimethylaminopyridine; TFA = trifluoroacetic acid; DMF = N,N-dimethylformamide. […]
A general note: In western blotting, separated proteins are transferred to a membrane and probed.

This is an account of results in publication PMC9691367, “The PROTAC selectively degrading Bcl-xL represents a novel Hedgehog pathway inhibitor with capacity of combating resistance to Smoothened inhibitors while sparing bone growth” (Theranostics, 2022).

Some results are limits rather than exact numbers.

T1 sequence (Q07817 whole entry, species assumed): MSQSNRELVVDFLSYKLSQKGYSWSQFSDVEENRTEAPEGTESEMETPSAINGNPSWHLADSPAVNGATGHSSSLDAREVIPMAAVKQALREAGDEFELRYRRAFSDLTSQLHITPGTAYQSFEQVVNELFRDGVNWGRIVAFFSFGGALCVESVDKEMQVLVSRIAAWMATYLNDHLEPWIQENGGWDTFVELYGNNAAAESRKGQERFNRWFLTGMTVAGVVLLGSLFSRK
Sequence of Mcl-1 (Q07820 whole entry, species assumed): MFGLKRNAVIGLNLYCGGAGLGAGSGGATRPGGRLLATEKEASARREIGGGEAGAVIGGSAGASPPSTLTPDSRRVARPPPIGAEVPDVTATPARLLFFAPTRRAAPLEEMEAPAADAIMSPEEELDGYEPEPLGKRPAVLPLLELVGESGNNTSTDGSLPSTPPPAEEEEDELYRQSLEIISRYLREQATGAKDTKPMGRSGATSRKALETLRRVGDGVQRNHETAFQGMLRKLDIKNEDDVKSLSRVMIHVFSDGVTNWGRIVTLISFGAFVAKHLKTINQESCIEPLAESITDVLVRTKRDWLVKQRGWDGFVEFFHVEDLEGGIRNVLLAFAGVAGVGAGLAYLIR

Broadly, the Ki is the equilibrium dissociation constant of an inhibitor or competing ligand from its target. `CC1(C)CCC(c2ccc(Cl)cc2)=C(CN2CCN(c3ccc(C(=O)NS(=O)(=O)c4ccc(NCCCN5CCN(CCCC#Cc6cccc7c6CN(C6CCC(=O)NC6=O)C7=O)CC5)c(S(=O)(=O)C(F)(F)F)c4)cc3)CC2)C1` (centres unmarked) [SIAIS361034]: the results for the Ki at Mcl-1 and on Bcl-xL [1] were > 10 µM and 0.0373 µM, respectively. For the same compound, the Bcl-xL ubiquitination result on Bcl-xL [2] is “induce Bcl-xL ubiquitination”. Also, the “tumor inhibition ratio / mean tumor growth inhibition (TGI) ratio” value in series [3] (nude mice, SIAIS361034 50 mg/kg, day 15 (termination of the experiment)) is recorded as 93.56%. Also, in series [3] (nude mice, SIAIS361034 50 mg/kg, GDC-0449 50 mg/kg p.o.), the “growth of SmoA1 tumors” value is reported as “remarkably suppressed”. Besides, the “expression of Gli1 mRNA in tumor tissues” value in series [3] (tumors harvested 6 h after the last dosage, RT-qPCR) was “significantly inhibited”. Also, in series [3] (western blot at the end of the experiment), the “Bcl-xL and Gli1 protein in harvested tumors” value is “inducing Bcl-xL degradation and repressing Gli1 expression”. Also, the “TCF/LEF luciferase activity (Wnt signaling) activated by PGE2” value in the series on Wnt signaling pathway is “failed to repress”. The “interaction of Sufu with Gli1” value in the series on Sufu/Gli1 interaction is given as “increased the interaction of Sufu with Gli1”. Further, the “platelets and other indispensable blood cells at the end of the experiment” value in series [4] is listed as “no side effects”. In addition, the “abundance of CRBN neo-substrates IKZF1, IKZF3, SALL4, GSPT1” value in series [5] is “did not affect abundance”.
